Results as given in US12655130B2 (ASSEMBLY BIOSCIENCES, INC., priority 2020, dated 2026).
Like-named read-outs stand apart in the source and are kept apart here.

System: HBV viral load (viral production from HepAD38 cells)
Assay: Activity of test compounds on viral production from HepAD38 cells (viral load by qPCR of HBV core sequence)
Assay type: cell-based
Description: Assay Measuring Activity of Test Compounds on Viral Production from HepAD38 Cells
HepAD38 cells grown in a T-150 flask (Corning, cat #: 430825) with Growth Medium (DMEM/F12 (1:1) (Hyclone, cat #: SH30023.02), 1× Pen/Strep (Invitrogen, cat #: 15140-122), 10% FBS (Tissue Culture Biologics, cat #: 101), 250 μg/mL G418 (Alfa Aesar, cat #: J62671), 1 μg/mL Tetracycline (Teknova, cat #: T3320)) were detached with 0.25% trypsin-EDTA (Invitrogen, cat #: 25200-056). Tetracycline-free treatment medium (15 mL DMEM/F12 (1:1) 1× Pen/step, with 2% FBS, Tet-system approved (Clontech, cat #: 631106) were then added to mix, transferred into a 50 ml conical tube (Falcon, cat #: 21008-918) and spun at 1300 rpm for 5 min. Pelleted cells were then re-suspended/washed with 50 mL of 1×DPBS (Invitrogen, cat #: 14190-136) 2 times and 50 mL treatment medium twice. HepAD38 cells were then re-suspended with 10 mL of treatment medium, syringed and counted. Wells of 96-well clear bottom TC plate (Corning, cat #: 3904) were seeded at 50,000 cells/well in 180 μL of treatment medium, and 20 μL of either 10% DMSO (Sigma, cat #: D4540) as controls or a 10× solution of test compounds in 10% DMSO in treatment media was added for a final compound concentration starting at 10 μM, and plates were incubated in 5% CO2 incubator at 37° C. for 5 days.
Subsequently viral load production was assayed by quantitative PCR (qPCR) of the HBV core sequence. PCR reaction mixture containing forward primers HBV-f 5′-CTGTGCCTTGGGTGGCITT-3′ (IDT DNA), Reverse primers HBV-r 5′-[…]-3′ (IDT DNA), Fluorescent TaqMan™ Probes HBV-probe 5′-FAM/AGCTCCAAA/ZENMITCTITATAAGGGTCGATGTC/3IABkFQ-3′ (IDT DNA), 10 μL/well of PerfeCTa® qPCR ToughMix® (Quanta Biosciences, Cat #: 95114-05K), and 6 μL/well of DEPC water (Alfa Aesar, cat #: J62087) was prepared. Four μL of supernatant was added to 16 μL of the reaction mixture in a qPCR plate (Applied Biosytems, Cat #: 4309849), sealed with a film (Applied Biosystems, Cat #: 4311971), centrifuged for a few seconds, and subsequently run on an Applied Biosystems VIIA7. The PCR mixture was incubated at 45° C. for 5 min, then 95° C. for 10 min, followed by 40 cycles of 10 seconds at 95° C. and 20 seconds at 60° C. Viral load was quantified against known HBV DNA standards by using ViiA™ 7 Software. Viral load in the supernatant from wells with treated cells were compared against viral load in supernatant from DMSO control wells (3 per plate). Cell viability assay was performed with CellTiter-Glo Luminescent Cell Viability Assay (Promega, cat #: G7573) with modification. Mixed appropriate amount of CellTiter-Glo (CTG) 1×DPBS in a 1:1 ratio, added 100 uL of the mixture to each well followed completely removal of all supernatant in each well without touching cell surface. Incubated the plate at room temperature for 10 min on an orbital shaker, and then read the plate with a plate reader (TECAN M1000 or Envision). EC50 or CC50 values were calculated through curve-fitting of the four-parameter nonlinear-logistic-regression model (GraphPad Prism or Dotmatics). CC50 values were all >10 μM.

[1] = Hepatitis B virus, HePAD38, 120 h, viral load lowering, 5 days, qPCR of supernatant, read-out: VL HepAD38 EC50 range

Compound `CCOC(=O)CC1CC2CC(c3ncn(C)c3C(=O)Nc3ccc(F)c(Cl)c3)CC2C1` (centres unmarked) [Example 16, Ethyl 2-(5-(5-((3-chloro-4-fluorophenyl)carbamoyl)-1-methyl-1H-imidazol-4-yl)octahydropentalen-2-yl)acetate] has an EC50 [1] of under 10 nM.
Work on `Cn1cnc(C2CC3CC(CC(N)=O)CC3C2)c1C(=O)Nc1ccc(F)c(Cl)c1` (centres unmarked) [Example 17, 4-(5-(2-Amino-2-oxoethyl)octahydropentalen-2-yl)-N-(3-chloro-4-fluorophenyl)-1-methyl-1H-imidazole-5-carboxamide] yielded an EC50 [1] of under 10 nM.
With `CN1CCN(C2CC3CC(c4ncn(C)c4C(=O)Nc4ccc(F)c(Cl)c4)CC3C2)CC1` (centres unmarked) [Example 18, N-(3-Chloro-4-fluorophenyl)-1-methyl-4-(5-(4-methylpiperazin-1-yl)octahydropentalen-2-yl)-1H-imidazole-5-carboxamide] the EC50 [1] was 10 to 50 nM.
In the case of `Cn1c(Cl)nc(C2CC3CC(=O)CC3C2)c1C(=O)Nc1ccc(F)c(Cl)c1` (centres unmarked) [Example 21, 2-Chloro-N-(3-chloro-4-fluorophenyl)-1-methyl-4-(5-oxooctahydropentalen-2-yl)-1H-imidazole-5-carboxamide], the EC50 [1] is reported as under 10 nM.
Work on `Cn1c(Cl)nc(C2CC3CC(O)CC3C2)c1C(=O)Nc1ccc(F)c(Cl)c1` (centres unmarked) [Example 22, 2-Chloro-N-(3-chloro-4-fluorophenyl)-4-(5-hydroxyoctahydropentalen-2-yl)-1-methyl-1H-imidazole-5-carboxamide] yielded an EC50 [1] of under 10 nM.
`Cc1nc(C2CC3CC(=O)CC3C2)c(C(=O)Nc2ccc(F)c(Cl)c2)n1C` (centres unmarked) [Example 23, N-(3-Chloro-4-fluorophenyl)-1,2-dimethyl-4-(5-oxooctahydropentalen-2-yl)-1H-imidazole-5-carboxamide] was tested, and the EC50 [1] was under 10 nM.
Work on `Cc1nc(C2CC3CC(O)CC3C2)c(C(=O)Nc2ccc(F)c(Cl)c2)n1C` (centres unmarked) [Example 24, N-(3-Chloro-4-fluorophenyl)-4-(5-hydroxyoctahydropentalen-2-yl)-1,2-dimethyl-1H-imidazole-5-carboxamide] yielded an EC50 [1] of under 10 nM.
`Cc1nc(C2CC3CC(O)(CS(C)(=O)=O)CC3C2)c(C(=O)Nc2ccc(F)c(Cl)c2)n1C` (centres unmarked) [Example 25, N-(3-Chloro-4-fluorophenyl)-4-(5-hydroxy-5-((methylsulfonyl)methyl)octahydropentalen-2-yl)-1,2-dimethyl-1H-imidazole-5-carboxamide] gave an EC50 [1] of under 10 nM.
Work on `Cc1nc(C2CC3CC(O)(C(F)(F)F)CC3C2)c(C(=O)Nc2ccc(F)c(Cl)c2)n1C` (centres unmarked) [Example 26, N-(3-Chloro-4-fluorophenyl)-4-(5-hydroxy-5-(trifluoromethyl)octahydropentalen-2-yl)-1,2-dimethyl-1H-imidazole-5-carboxamide] yielded an EC50 [1] of 10 to 50 nM.
Work on `Cn1c(N)nc(C2CC3CC(O)CC3C2)c1C(=O)Nc1ccc(F)c(Cl)c1` (centres unmarked) [Example 28, 2-Amino-N-(3-chloro-4-fluorophenyl)-4-(5-hydroxyoctahydropentalen-2-yl)-1-methyl-1H-imidazole-5-carboxamide] yielded an EC50 [1] of under 10 nM.
In the case of `CNc1nc(C2CC3CC(=O)CC3C2)c(C(=O)Nc2ccc(F)c(Cl)c2)n1C` (centres unmarked) [Example 29, N-(3-Chloro-4-fluorophenyl)-1-methyl-2-(methylamino)-4-(5-oxooctahydropentalen-2-yl)-1H-imidazole-5-carboxamide], the EC50 [1] is reported as 10 to 50 nM.
`CNc1nc(C2CC3CC(O)CC3C2)c(C(=O)Nc2ccc(F)c(Cl)c2)n1C` (centres unmarked) [Example 30, N-(3-Chloro-4-fluorophenyl)-4-(5-hydroxyoctahydropentalen-2-yl)-1-methyl-2-(methylamino)-1H-imidazole-5-carboxamide] gave an EC50 [1] of under 10 nM.
`O=C1CC2CC(c3nc4n(c3C(=O)Nc3ccc(F)c(Cl)c3)CCC4)CC2C1` (centres unmarked) [Example 31, N-(3-Chloro-4-fluorophenyl)-2-(5-oxooctahydropentalen-2-yl)-6,7-dihydro-5H-pyrrolo[1,2-a]imidazole-3-carboxamide] showed an EC50 [1] of under 10 nM.
Compound `O=C(Nc1ccc(F)c(Cl)c1)c1ocnc1C1CC2CC(O)CC2C1` (centres unmarked) [Example 36, N-(3-Chloro-4-fluorophenyl)-4-(5-hydroxyoctahydropentalen-2-yl)oxazole-5-carboxamide] has an EC50 [1] of 50 to 500 nM.
For `O=C(Nc1ccc(F)c(Cl)c1)c1sc(C(F)(F)F)nc1C1CC2CC(O)CC2C1` (centres unmarked) [Example 37, N-(3-chloro-4-fluorophenyl)-4-(5-hydroxyoctahydropentalen-2-yl)-2-(trifluoromethyl)thiazole-5-carboxamide], the EC50 [1] was 50 to 500 nM.
`O=C1CC2CC(c3ncsc3C(=O)Nc3ccc(F)c(Cl)c3)CC2C1` (centres unmarked) [Example 38, N-(3-Chloro-4-fluorophenyl)-4-(5-oxooctahydropentalen-2-yl)thiazole-5-carboxamide] gave an EC50 [1] of under 10 nM.
`O=C(Nc1ccc(F)c(Cl)c1)c1scnc1C1CC2CC(O)CC2C1` (centres unmarked) [Example 39, N-(3-Chloro-4-fluorophenyl)-4-(5-hydroxyoctahydropentalen-2-yl)thiazole-5-carboxamide] was tested, and the EC50 [1] was under 10 nM.
With `O=C1CC2CC(c3nc4n(c3C(=O)Nc3ccc(F)c(Cl)c3)CCCC4)CC2C1` (centres unmarked) [Example 40, 2-[-5-Oxo-2,3,3a,4,6,6a-hexahydro-1H-pentalen-2-yl]-N-(3-chloro-4-fluorophenyl)-5,6,7,8-tetrahydroimidazo[1,2-a]pyridine-3-carboxamide] the EC50 (read-out: VL HepAD38 EC50 range, viral load lowering, 5 days, qPCR of supernatant) was 50 to 500 nM.
`CCNc1nc(C2CC3CC(O)CC3C2)c(C(=O)Nc2ccc(F)c(Cl)c2)n1C` (centres unmarked) [Example 41, 5-[-5-Hydroxy-1,2,3,3a,4,5,6,6a-octahydropentalen-2-yl]-N-(3-chloro-4-fluorophenyl)-2-(ethylamino)-3-methyl-4-imidazolecarboxamide] gave an EC50 [1] of 10 to 50 nM.
For `Cn1c(C#N)nc(C2CC3CC(O)CC3C2)c1C(=O)Nc1ccc(F)c(Cl)c1` (centres unmarked) [Example 42, 5-[-5-Hydroxy-1,2,3,3a,4,5,6,6a-octahydropentalen-2-yl]-N-(3-chloro-4-fluorophenyl)-2-cyano-3-methyl-4-imidazolecarboxamide], the EC50 [1] was 10 to 50 nM.
`CN(C)C1CC2CC(c3ncn(C)c3C(=O)Nc3ccc(F)c(Cl)c3)CC2C1` (centres unmarked) [Example 43, 5-[5-(Dimethylamino)-1,2,3,3a,4,5,6,6a-octahydropentalen-2-yl]-N-(3-chloro-4-fluorophenyl)-3-methyl-4-imidazolecarboxamide] was tested, and the EC50 [1] was 10 to 50 nM.
`Cn1cnc(C2CC3CC(N4CCCCC4)CC3C2)c1C(=O)Nc1ccc(F)c(Cl)c1` (centres unmarked) [Example 46, 5-[-5-(1-Piperidinyl)-1,2,3,3a,4,5,6,6a-octahydropentalen-2-yl]-N-(3-chloro-4-fluorophenyl)-3-methyl-4-imidazolecarboxamide] showed an EC50 [1] of 10 to 50 nM.
`Cn1cnc(C2CC3CC(N4CCOCC4)CC3C2)c1C(=O)Nc1ccc(F)c(Cl)c1` (centres unmarked) [Example 47, 5-[-5-(4-Morpholinyl)-1,2,3,3a,4,5,6,6a-octahydropentalen-2-yl]-N-(3-chloro-4-fluorophenyl)-3-methyl-4-imidazolecarboxamide] showed an EC50 [1] of 50 to 500 nM.
`CN(Cc1ccccc1)c1nc(C2CC3CC(O)CC3C2)c(C(=O)Nc2ccc(F)c(Cl)c2)n1C` (centres unmarked) [Example 48, 2-(benzyl(methyl)amino)-N-(3-chloro-4-fluorophenyl)-4-(5-hydroxyoctahydropentalen-2-yl)-1-methyl-1H-imidazole-5-carboxamide] showed an EC50 [1] of 50 to 500 nM.
With `CCNc1nc(C2CC3CC(=O)CC3C2)c(C(=O)Nc2ccc(F)c(Cl)c2)n1C` (centres unmarked) [Example 49, N-(3-chloro-4-fluorophenyl)-2-(ethylamino)-1-methyl-4-(5-oxooctahydropentalen-2-yl)-1H-imidazole-5-carboxamide] the EC50 [1] was 50 to 500 nM.
Compound `Cn1cnc(C2CC3CC(O)(c4cc(N)nn4C)CC3C2)c1C(=O)Nc1ccc(F)c(Cl)c1` (centres unmarked) [Example 51, 4-(5-(3-Amino-1-methyl-1H-pyrazol-5-yl)-5-hydroxyoctahydropentalen-2-yl)-N-(3-chloro-4-fluorophenyl)-1-methyl-1H-imidazole-5-carboxamide] has an EC50 [1] of under 10 nM.
